One experiment deals with α2 adrenergic receptors. Description: Receptor affinity summary, α2 adrenergic receptors. It is filed as binding. The conditions noted are these: for Relative Affinity: α2-Adrenergic. More on the design: key to Relative Affinity: ≧ indicates greater or equal affinity; = indicates about the same affinity; − indicates no affinity. The procedure: (§1) Receptor-ligand binding studies were performed as known to one skilled in the art. Compounds evaluated were LMP, the parent compound, the NDM LMP metabolite of LMP, and the sulfoxide metabolite of LMP. These studies verified receptor binding and affinity by the parent compound, as well as identified other potential receptors for the parent compound and its metabolites, and identified and verified receptors and receptor affinity for the metabolites.
(§2) Dopamine receptor affinity included binding to D1, D2, D3, D4, and D5 receptors. Serotonin receptor affinity included binding to 5-HT1A, 5-HT2A, 5-HT2B, 5-HT2, 5-HT5A, 5-HT6, and 5-HT7 receptors. Alpha adrenergic receptor affinity included binding to α1A, α1B, α1C, α2A, α2B, and α2C receptors. Muscarinic receptor affinity included binding to M1, M2, M3, M4, and M5 receptors. Binding to the histamine H1 receptor, the calcium ion channel receptor, and the sodium ion channel receptor were also evaluated. In each of the tables, the following abbreviations are used: LMP indicates the parent compound levomepromazine. NDM LMP indicates the N-desmethyl (N-desmethyl) metabolite. Sulfoxide indicates the sulfoxide metabolite. […] Ki (the inhibition constants of binding) indicate binding affinity.

For a further experiment, the target named is Serotonin 5-HT5A (Homo sapiens, UniProt P47898). Description: Receptor binding, Serotonin 5-HT5A. The protocol:
as §1, §2

Another experiment addresses T1, Adrenergic α2C (Homo sapiens, UniProt P18825).
T1 sequence (P18825 1-462): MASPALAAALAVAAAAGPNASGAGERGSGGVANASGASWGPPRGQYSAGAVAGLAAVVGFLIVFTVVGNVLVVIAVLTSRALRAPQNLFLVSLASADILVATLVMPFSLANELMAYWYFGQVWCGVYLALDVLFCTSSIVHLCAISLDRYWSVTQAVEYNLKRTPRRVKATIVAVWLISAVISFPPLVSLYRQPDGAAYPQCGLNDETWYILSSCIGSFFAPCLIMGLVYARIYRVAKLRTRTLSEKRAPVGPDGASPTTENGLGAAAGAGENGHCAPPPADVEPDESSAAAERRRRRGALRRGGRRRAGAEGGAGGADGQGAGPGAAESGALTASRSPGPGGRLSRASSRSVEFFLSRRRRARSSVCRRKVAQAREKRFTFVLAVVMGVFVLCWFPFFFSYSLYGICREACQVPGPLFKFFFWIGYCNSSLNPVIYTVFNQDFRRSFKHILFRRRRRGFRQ
Description: Receptor binding, Adrenergic α2C. The procedure: as §1, §2

Another experiment concerns the target T2, Muscarinic M1 (Homo sapiens, UniProt P11229).
T2 sequence (P11229 1-460): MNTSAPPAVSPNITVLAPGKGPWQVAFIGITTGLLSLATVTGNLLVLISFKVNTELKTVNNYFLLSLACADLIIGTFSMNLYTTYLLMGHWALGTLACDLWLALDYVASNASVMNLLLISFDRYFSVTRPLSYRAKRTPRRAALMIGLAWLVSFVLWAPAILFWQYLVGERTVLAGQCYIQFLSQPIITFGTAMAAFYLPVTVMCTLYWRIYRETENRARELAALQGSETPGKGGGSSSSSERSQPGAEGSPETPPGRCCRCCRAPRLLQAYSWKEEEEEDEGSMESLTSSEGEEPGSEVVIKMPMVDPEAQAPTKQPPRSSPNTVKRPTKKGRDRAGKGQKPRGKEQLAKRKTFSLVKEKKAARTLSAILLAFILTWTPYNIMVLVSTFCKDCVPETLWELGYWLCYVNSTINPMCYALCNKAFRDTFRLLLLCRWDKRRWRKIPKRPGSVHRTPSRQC
Nature of the experiment: Receptor binding, Muscarinic M1. The procedure:
as §1, §2

The target of another experiment is Serotonin 5-HT7 (Homo sapiens, UniProt P34969). Description: Receptor binding, Serotonin 5-HT7. The protocol:
as §1, §2

Another experiment deals with Muscarinic M3 (Homo sapiens, UniProt P20309). Nature of the experiment: Receptor binding, Muscarinic M3. The procedure:
as §1, §2

Another experiment deals with α1 adrenergic receptors. Nature of the experiment: Receptor affinity summary, α1 adrenergic receptors. The conditions noted are these: for Relative Affinity: α1-Adrenergic; for binding to all α1 adrenergic receptors (in words): α1A, α1B, and α1C. It is filed as binding. The protocol: as §1, §2
The target of the next experiment is Histamine H1 (Homo sapiens, UniProt P35367). Nature of the experiment: Receptor binding, Histamine H1. The conditions noted are these: for Relative Affinity: Histamine; for Ki: Histamine H1. The protocol:
as §1, §2

The target of a further experiment is T3, Muscarinic M2 (Homo sapiens, UniProt P08172).
T3 sequence (P08172 1-466): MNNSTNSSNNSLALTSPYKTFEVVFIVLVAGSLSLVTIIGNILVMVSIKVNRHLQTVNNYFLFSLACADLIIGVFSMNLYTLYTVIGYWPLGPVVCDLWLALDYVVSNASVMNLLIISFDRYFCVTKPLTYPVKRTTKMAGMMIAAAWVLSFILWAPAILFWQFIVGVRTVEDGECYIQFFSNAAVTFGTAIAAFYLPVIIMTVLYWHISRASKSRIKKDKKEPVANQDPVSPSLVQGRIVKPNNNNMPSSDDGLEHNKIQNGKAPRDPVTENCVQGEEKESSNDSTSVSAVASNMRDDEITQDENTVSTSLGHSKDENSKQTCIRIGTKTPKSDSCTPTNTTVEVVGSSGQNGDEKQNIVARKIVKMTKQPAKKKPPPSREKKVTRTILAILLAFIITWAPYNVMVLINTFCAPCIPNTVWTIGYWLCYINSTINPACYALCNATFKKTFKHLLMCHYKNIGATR
Nature of the experiment: Receptor binding, Muscarinic M2. The procedure: as §1, §2

For the next experiment, the target named is T4, Serotonin 5-HT1A (Homo sapiens, UniProt P08908).
T4 sequence (P08908 1-422): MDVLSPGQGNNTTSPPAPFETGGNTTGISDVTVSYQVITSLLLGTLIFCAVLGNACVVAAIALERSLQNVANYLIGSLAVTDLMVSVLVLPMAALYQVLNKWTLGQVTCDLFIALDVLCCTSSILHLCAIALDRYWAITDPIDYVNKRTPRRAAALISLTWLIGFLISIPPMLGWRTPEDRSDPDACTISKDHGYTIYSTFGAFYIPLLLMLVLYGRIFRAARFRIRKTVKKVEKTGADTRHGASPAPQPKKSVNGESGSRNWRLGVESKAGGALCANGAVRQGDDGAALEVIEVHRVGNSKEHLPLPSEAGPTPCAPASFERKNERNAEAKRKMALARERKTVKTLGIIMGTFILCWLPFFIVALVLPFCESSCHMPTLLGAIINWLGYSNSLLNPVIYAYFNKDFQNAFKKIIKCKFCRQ
Description: Receptor binding, Serotonin 5-HT1A. The procedure:
as §1, §2

The test system of a further experiment is muscarinic receptors. Nature of the experiment: Receptor affinity summary, muscarinic receptors. It counts as binding. The following applies: for Relative Affinity: Muscarinic; for binding affinity to muscarinic receptors (in words): all receptors. The protocol: as §1, §2
A further experiment deals with Serotonin 5-HT2B (Homo sapiens, UniProt P41595). Description: Receptor binding, Serotonin 5-HT2B. The procedure:
as §1, §2

As usually defined, the Ki is the equilibrium dissociation constant of an inhibitor or competing ligand from its target.

Serotonin 5-HT7, sequence (P34969 whole entry): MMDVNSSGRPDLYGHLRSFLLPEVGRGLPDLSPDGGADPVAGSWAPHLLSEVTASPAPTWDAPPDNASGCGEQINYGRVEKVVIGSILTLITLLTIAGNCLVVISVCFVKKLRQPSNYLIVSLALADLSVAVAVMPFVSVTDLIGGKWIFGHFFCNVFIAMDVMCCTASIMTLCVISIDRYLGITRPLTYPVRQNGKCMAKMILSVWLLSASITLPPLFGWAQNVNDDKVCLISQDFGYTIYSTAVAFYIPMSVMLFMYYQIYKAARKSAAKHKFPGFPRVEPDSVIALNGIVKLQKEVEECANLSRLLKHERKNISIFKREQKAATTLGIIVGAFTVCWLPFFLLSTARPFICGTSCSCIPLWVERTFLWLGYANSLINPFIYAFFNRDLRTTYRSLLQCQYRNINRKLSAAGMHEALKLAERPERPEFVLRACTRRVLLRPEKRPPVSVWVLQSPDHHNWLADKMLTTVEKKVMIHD
Serotonin 5-HT2B, sequence (P41595 whole entry): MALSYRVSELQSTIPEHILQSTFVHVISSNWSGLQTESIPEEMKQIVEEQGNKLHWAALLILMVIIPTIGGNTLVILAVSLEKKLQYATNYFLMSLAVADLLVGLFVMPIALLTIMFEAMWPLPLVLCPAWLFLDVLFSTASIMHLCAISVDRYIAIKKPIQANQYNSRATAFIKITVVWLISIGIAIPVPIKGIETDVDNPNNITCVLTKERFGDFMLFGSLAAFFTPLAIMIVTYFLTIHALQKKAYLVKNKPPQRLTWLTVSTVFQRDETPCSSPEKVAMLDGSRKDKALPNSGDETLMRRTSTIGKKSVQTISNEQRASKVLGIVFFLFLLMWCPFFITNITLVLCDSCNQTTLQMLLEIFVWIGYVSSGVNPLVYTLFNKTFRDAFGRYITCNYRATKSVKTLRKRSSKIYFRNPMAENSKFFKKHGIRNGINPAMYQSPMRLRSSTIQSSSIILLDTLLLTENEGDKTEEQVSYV
Serotonin 5-HT5A, sequence (P47898 whole entry): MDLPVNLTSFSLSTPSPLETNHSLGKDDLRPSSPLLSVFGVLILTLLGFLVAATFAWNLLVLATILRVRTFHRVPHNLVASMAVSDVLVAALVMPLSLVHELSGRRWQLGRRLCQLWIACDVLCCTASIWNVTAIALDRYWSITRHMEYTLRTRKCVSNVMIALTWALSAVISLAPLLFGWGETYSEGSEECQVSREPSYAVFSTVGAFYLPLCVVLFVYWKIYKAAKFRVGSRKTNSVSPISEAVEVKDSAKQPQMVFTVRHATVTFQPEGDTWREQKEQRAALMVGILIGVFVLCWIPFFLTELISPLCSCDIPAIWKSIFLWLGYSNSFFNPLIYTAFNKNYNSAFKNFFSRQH
Muscarinic M3, sequence (P20309 whole entry): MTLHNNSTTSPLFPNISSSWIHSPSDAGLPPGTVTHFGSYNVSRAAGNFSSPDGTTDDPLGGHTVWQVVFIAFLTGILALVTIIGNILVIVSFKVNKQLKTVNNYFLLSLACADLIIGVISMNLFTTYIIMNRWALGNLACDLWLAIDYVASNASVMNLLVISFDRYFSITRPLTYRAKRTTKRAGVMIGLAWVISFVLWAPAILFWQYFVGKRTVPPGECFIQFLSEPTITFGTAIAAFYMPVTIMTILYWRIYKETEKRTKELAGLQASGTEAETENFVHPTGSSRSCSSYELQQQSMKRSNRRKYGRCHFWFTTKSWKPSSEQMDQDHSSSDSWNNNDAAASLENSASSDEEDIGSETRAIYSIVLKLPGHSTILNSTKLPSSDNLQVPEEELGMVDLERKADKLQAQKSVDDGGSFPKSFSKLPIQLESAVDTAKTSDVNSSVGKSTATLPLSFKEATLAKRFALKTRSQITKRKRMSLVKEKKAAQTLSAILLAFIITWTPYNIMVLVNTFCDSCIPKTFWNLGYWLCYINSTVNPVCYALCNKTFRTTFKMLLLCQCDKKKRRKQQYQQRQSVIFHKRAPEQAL
Histamine H1, sequence (P35367 whole entry): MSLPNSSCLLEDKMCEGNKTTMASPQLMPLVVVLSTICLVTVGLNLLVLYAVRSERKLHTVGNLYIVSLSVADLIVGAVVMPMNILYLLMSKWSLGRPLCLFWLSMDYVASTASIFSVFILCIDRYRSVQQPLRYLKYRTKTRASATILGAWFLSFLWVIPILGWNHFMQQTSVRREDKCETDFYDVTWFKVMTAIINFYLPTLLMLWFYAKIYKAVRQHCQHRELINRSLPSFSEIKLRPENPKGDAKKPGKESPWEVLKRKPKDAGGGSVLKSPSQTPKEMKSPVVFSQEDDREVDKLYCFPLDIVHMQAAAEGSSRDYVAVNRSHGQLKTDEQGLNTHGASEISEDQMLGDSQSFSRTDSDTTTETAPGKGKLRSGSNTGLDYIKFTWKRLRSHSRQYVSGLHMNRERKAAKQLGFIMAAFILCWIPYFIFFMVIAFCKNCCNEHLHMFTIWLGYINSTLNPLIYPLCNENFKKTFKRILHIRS

On to `COc1ccc2c(c1)N(C[C@H](C)CN(C)C)c1ccccc1[S+]2[O-]` (some centres unmarked) [Sulfoxide, levomepromazine sulfoxide], for which the “binding affinity to α2 adrenergic receptors (in words)” value in the experiment on α2 adrenergic receptors is “no affinity was detected”. Also, the “Relative Affinity” value in the experiment with α2 adrenergic receptors is “−”; with α1 adrenergic receptors, “LMP = NDM LMP ≧ sulfoxide”; at Histamine H1 it was “LMP = NDM LMP = sulfoxide”; in the experiment on muscarinic receptors, “LMP = NDM LMP > sulfoxide”. The Ki was above 10000 nM on Serotonin 5-HT5A; above 10000 nM on Adrenergic α2C; 726 nM on Muscarinic M1; above 10000 nM on Serotonin 5-HT7; 551 nM at Muscarinic M3; 6.1 nM on Histamine H1. In addition, the Ki was 1290 nM on Muscarinic M2, above 10000 nM at Serotonin 5-HT1A and above 10000 nM on Serotonin 5-HT2B. Further, the “binding to all α1 adrenergic receptors (in words)” value with α1 adrenergic receptors is “high binding”. Also, the “binding affinity to muscarinic receptors (in words)” value in the experiment with muscarinic receptors is given as “low affinity”.
As to `COc1ccc2c(c1)N(C[C@H](C)CN(C)C)c1ccccc1S2` [LMP, Levomepromazine], in the experiment on α2 adrenergic receptors, the “binding affinity to α2 adrenergic receptors (in words)” value is “demonstrated binding”. Also, the Ki stood at 136 nM at Serotonin 5-HT5A; 77 nM on Adrenergic α2C; 43 nM on Muscarinic M1; 24 nM at Serotonin 5-HT7; 39 nM at Muscarinic M3; 2 nM at Histamine H1. The Ki at Muscarinic M2 is 263 nM; on Serotonin 5-HT1A it was 827 nM; at Serotonin 5-HT2B, 19 nM. In addition, in the experiment on α1 adrenergic receptors, the “binding to all α1 adrenergic receptors (in words)” value is recorded as “high binding”. Besides, the “binding affinity to muscarinic receptors (in words)” value in the experiment with muscarinic receptors was “moderate-to-high affinities”.
With `CNCC(C)CN1c2ccccc2Sc2ccc(OC)cc21` (stereo not drawn) [NDM LMP, R(+) 2-methoxy-10-2-methyl-3-monomethylaminopropyl phenothiazine], the “binding affinity to α2 adrenergic receptors (in words)” value in the experiment on α2 adrenergic receptors is given as “demonstrated binding”. For the same compound, the “Relative Affinity” value with α2 adrenergic receptors was “LMP = NDM LMP”; in the experiment with α1 adrenergic receptors, “LMP = NDM LMP ≧ sulfoxide”; on Histamine H1, “LMP = NDM LMP = sulfoxide”; in the experiment on muscarinic receptors, “LMP = NDM LMP > sulfoxide”. The Ki worked out at 152 nM on Serotonin 5-HT5A; 74 nM at Adrenergic α2C; 54 nM at Muscarinic M1; 18 nM on Serotonin 5-HT7; 47 nM on Muscarinic M3; 2.1 nM at Histamine H1. Besides, the results for the Ki on Muscarinic M2, on Serotonin 5-HT1A and at Serotonin 5-HT2B were 325 nM, 641 nM and 27 nM, respectively. In the experiment on α1 adrenergic receptors, the “binding to all α1 adrenergic receptors (in words)” value was “high binding”. For the same compound, in the experiment on muscarinic receptors, the “binding affinity to muscarinic receptors (in words)” value is on record as “moderate-to-high affinities”.

The values above are taken from patent US20050080076A1 (Xanodyne Pharmacal, Inc., priority 2003, published 2005).
